Results taken from patent US20260070945A1, “MACROCYCLIC IMMUNOMODULATORS” (Bristol-Myers Squibb Company, priority 2022, published 2026).
pIC50: −log10 of the molar value. *1 amine or outer side, *2 acyl side, *3 side chain or, on linkers, in order; H or OH if unused. Where a SMILES comes first, the peptide text is derived from it. Bridges are numbered along the chain shown (N, C = ends). [ ]: non-standard residue; d: D form. The star is where a group is joined. ξ: configuration not given here. X5 = O=C([C@H](Cc1ccc(-c2cc(F)c(F)c(F)c2)cc1)N[*:1])[*:2]; Phe(3-CF3) = N[C@@H](Cc1cccc(C(F)(F)F)c1)C(=O)O; Ala(morpholin-4-yl) = N[C@@H](CN1CCOCC1)C(=O)O; Phe(4-COOH) = N[C@@H](Cc1ccc(C(=O)O)cc1)C(=O)O; Bip = N[C@@H](Cc1ccc(-c2ccccc2)cc1)C(=O)O; Phe(3-Me) = Cc1cccc(C[C@H](N)C(=O)O)c1; γGlu = O=C(O)[C@H](CCC(=O)[*:2])N[*:1]; NH(CH2)12COOH = O=C(O)CCCCCCCCCCCCN*; X11 = CC[C@@H](C)C(N[*:1])C(=O)[*:2]; Val(3-OH) = CC(C)(O)[C@H](N)C(=O)O; 4Pal = N[C@@H](Cc1ccncc1)C(=O)O; Cha = N[C@@H](CC1CCCCC1)C(=O)O; Thr(3ξ) = CC(O)[C@H](N)C(=O)O; Carboxymethyl = O=C(O)C*; NMeA = CN[C@@H](C)C(=O)O; Orn = NCCC[C@H](N)C(=O)O; Aun = NCCCCCCCCCCC(=O)O; Dab = NCC[C@H](N)C(=O)O; AEEA = NCCOCCOCC(=O)O

The molecules below were run against T1, PD-1/PD-L1 interaction (PE-labeled human PD-L1-Ig binding to Jurkat cell line over-expressing human PD-1) (Homo sapiens, UniProt Q15116) (assay: Jurkat-PD-1 Cell Binding High-Content Screening Assay (CBA)). Details: Jurkat-hPD-1 cells, PE-labeled PD-L1-Ig 20 nM final; read-out: Jurkat HPD1 PDL1 IC50.
T1 construct: expressed in transfected cells; host or cells: Jurkat
Summary of the method: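 Jurkat cells overexpressing human PD-1 (8×10^3/well, DMEM + 10% FCS) preincubated with compound 2 h at 37 °C, then PE-labelled human PD-L1-Ig (20 nM final) for 1 h. Cells fixed in paraformaldehyde with Hoechst 33342; bound PD-L1 quantified by high-content imaging.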

T1 sequence (Q15116 25-288): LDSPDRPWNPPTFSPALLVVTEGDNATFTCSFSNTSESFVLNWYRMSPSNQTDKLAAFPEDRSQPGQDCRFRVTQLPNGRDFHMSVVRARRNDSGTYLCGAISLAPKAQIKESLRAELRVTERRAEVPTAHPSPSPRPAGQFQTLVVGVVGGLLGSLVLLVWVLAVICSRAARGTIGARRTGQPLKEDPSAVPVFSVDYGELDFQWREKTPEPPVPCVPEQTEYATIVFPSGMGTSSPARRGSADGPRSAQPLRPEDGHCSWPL

| Compound | pIC50 |
| --- | --- |
| CC(C)C[C@H]1NC(=O)[C@H](C)N(C)C(=O)[C@H](Cc2ccc(OCC(=O)O)cc2)NC(=O)[C@H](Cc2ccc(-c3cc(F)c(F)c(F)c3)cc2)NC(=O)[C@H](Cc2ccc(C(=O)O)cc2)NC(=O)[C@H](Cc2cccc(C(F)(F)F)c2)NC(=O)[C@H](CC(=O)O)NC(=O)[C@H](Cc2ccc(OCC(=O)O)cc2)NC(=O)[C@H]([C@@H](C)O)NC(=O)CSC[C@@H](C(=O)N[C@@H](CCN)C(=O)NCCCCCCCCCCC(=O)O)NC(=O)[C@H]([C@@H](C)O)NC(=O)[C@H](C(C)C)NC(=O)[C@H](CC2CCCCC2)NC(=O)[C@H](CCN)NC1=O [Example 1237] ({CH2CO}-TY(Carboxymethyl)D[Phe(3-CF3)][Phe(4-COOH)][X5]Y(Carboxymethyl)[NMeA][dL][Dab][Cha]VTC[Dab][Aun]-OH; thioether N-14) | 6.74 |
| CC(C)C[C@@H]1NC(=O)[C@H](Cc2c[nH]c3ccccc23)NC(=O)[C@H](CC(=O)O)NC(=O)[C@H](Cc2ccc(C(=O)O)cc2)NC(=O)[C@H](Cc2ccc(OCC(=O)O)cc2)NC(=O)CSC[C@@H](C(=O)N[C@@H](CCN)C(=O)NCCCCCCCCCCC(=O)O)NC(=O)[C@H]([C@@H](C)O)NC(=O)[C@H](C(C)C)NC(=O)[C@H](CC2CCCCC2)NC(=O)[C@H](CCN)NC(=O)[C@@H](CC(C)C)NC(=O)[C@H](C)N(C)C(=O)[C@H](C(C)C)NC(=O)[C@H](Cc2ccc(-c3ccccc3)cc2)NC1=O [Example 1326] ({CH2CO}-Y(Carboxymethyl)[Phe(4-COOH)]DWL[Bip]V[NMeA][dL][Dab][Cha]VTC[Dab][Aun]-OH; thioether N-14) | 7.70 |
| CC(C)C[C@@H]1NC(=O)[C@H](Cc2c[nH]c3ccccc23)NC(=O)[C@H](CC(=O)O)NC(=O)[C@H](Cc2ccncc2)NC(=O)[C@H](Cc2ccc(OCC(=O)O)cc2)NC(=O)CSC[C@@H](C(=O)N[C@@H](CCCN)C(=O)NCCCCCCCCCCC(=O)O)NC(=O)[C@H]([C@@H](C)O)NC(=O)[C@H](C(C)C)NC(=O)[C@H](CC2CCCCC2)NC(=O)[C@H](CCN)NC(=O)[C@@H](CC(C)C)NC(=O)[C@H](C)N(C)C(=O)[C@H](C(C)C)NC(=O)[C@H](Cc2ccc(-c3ccccc3)cc2)NC1=O [Example 1331] ({CH2CO}-Y(Carboxymethyl)[4Pal]DWL[Bip]V[NMeA][dL][Dab][Cha]VTC[Orn][Aun]-OH; thioether N-14) | 7.91 |
| COC[C@@H]1NC(=O)CSC[C@@H](C(=O)N[C@@H](CCN)C(=O)NCCCCCCCCCCCCC(=O)O)NC(=O)[C@H](Cc2c[nH]cn2)NC(=O)[C@H](C(C)(C)O)NC(=O)[C@H](CC2CCCCC2)NC(=O)[C@H](CCN)NC(=O)[C@@H](CC(C)C)NC(=O)[C@H](C)N(C)C(=O)[C@H](CCC(N)=O)NC(=O)[C@H](Cc2ccc(-c3ccccc3)cc2)NC(=O)[C@H](Cc2ccc(C(=O)O)cc2)NC(=O)[C@H](Cc2cccc(C(F)(F)F)c2)NC(=O)[C@H](CC(=O)O)NC(=O)[C@H](Cc2ccc(OCC(=O)O)cc2)NC1=O [Example 1137] ({CH2CO}-S(Me)Y(Carboxymethyl)D[Phe(3-CF3)][Phe(4-COOH)][Bip]Q[NMeA][dL][Dab][Cha][Val(3-OH)]HC[Dab]-{NH(CH2)12COOH}; thioether N-14) | 7.87 |
| CC(C)C[C@@H]1NC(=O)[C@H](Cc2c[nH]c3ccccc23)NC(=O)[C@H](CC(=O)O)NC(=O)[C@H](Cc2ccc(C(=O)O)cc2)NC(=O)[C@H](Cc2ccc(OCC(=O)O)cc2)NC(=O)CSC[C@@H](C(=O)N[C@@H](CCN)C(=O)NCCCCCCCCCCC(=O)O)NC(=O)[C@@H](CCC(N)=O)NC(=O)[C@H](C(C)C)NC(=O)[C@H](CC2CCCCC2)NC(=O)[C@H](CCN)NC(=O)[C@@H](CC(C)C)NC(=O)[C@H](C)N(C)C(=O)[C@H](C(C)C)NC(=O)[C@H](Cc2ccc(-c3ccccc3)cc2)NC1=O [Example 1339] ({CH2CO}-Y(Carboxymethyl)[Phe(4-COOH)]DWL[Bip]V[NMeA][dL][Dab][Cha]V[dQ]C[Dab][Aun]-OH; thioether N-14) | 7.55 |
| CC(=O)NCCCC[C@@H]1NC(=O)[C@H](C(C)(C)O)NC(=O)[C@H](CC2CCCCC2)NC(=O)[C@H](CCN)NC(=O)[C@@H](CC(C)C)NC(=O)[C@H](C)N(C)C(=O)[C@H](CCC(N)=O)NC(=O)[C@H](Cc2ccc(-c3ccccc3)cc2)NC(=O)[C@H](Cc2ccc(C(=O)O)cc2)NC(=O)[C@H](Cc2cccc(C(F)(F)F)c2)NC(=O)[C@H](CC(=O)O)NC(=O)[C@H](Cc2ccc(OCC(=O)O)cc2)NC(=O)[C@H](CN2CCOCC2)NC(=O)CSC[C@@H](C(=O)N[C@@H](CCN)C(=O)NCCOCCOCC(=O)N[C@@H](CCC(=O)NCCOCCOCC(=O)NCCCCCCCCCCCCC(=O)O)C(=O)O)NC1=O [Example 1174] ({CH2CO}-[Ala(morpholin-4-yl)]Y(Carboxymethyl)D[Phe(3-CF3)][Phe(4-COOH)][Bip]Q[NMeA][dL][Dab][Cha][Val(3-OH)]K(Ac)C[Dab][AEEA][γGlu][AEEA]-{NH(CH2)12COOH}; thioether N-14) | 7.63 |

Next, values leading:

| pIC50 | Compound |
| --- | --- |
| 7.03 | CC[C@@H](C)C1NC(=O)[C@H](Cc2ccc(-c3ccccc3)cc2)NC(=O)[C@H](CC(C)C)NC(=O)[C@H](Cc2cccc(C)c2)NC(=O)[C@H](CC(=O)O)NC(=O)[C@H](Cc2ccc(O)cc2)NC(=O)[C@H](Cc2ccccc2)NC(=O)CSC[C@@H](C(=O)N[C@@H](CCN)C(=O)NCCCCCCCCCCC(=O)O)NC(=O)[C@H](CCCCN)NC(=O)[C@H](C(C)C)NC(=O)[C@H](CC(C)C)NC(=O)[C@H](CCN)NC(=O)[C@@H](C)NC(=O)[C@H](C)N(C)C1=O (stereo partly drawn) [Example 2197] ({CH2CO}-FYD[Phe(3-Me)]L[Bip][X11][NMeA][dA][Dab]LVKC[Dab][Aun]-OH; thioether N-14) |
| 7.66 | Cc1cccc(C[C@@H]2NC(=O)[C@H](CC(=O)O)NC(=O)[C@H](Cc3ccc(OCC(=O)O)cc3)NC(=O)[C@H](C(C)O)NC(=O)CSC[C@@H](C(=O)N[C@H](CC(N)=O)C(=O)NCCCCCCCCCCC(=O)O)NC(=O)[C@H](C(C)O)NC(=O)[C@H](C(C)C)NC(=O)[C@H](CC3CCCCC3)NC(=O)[C@H](CCN)NC(=O)[C@@H](CC(C)C)NC(=O)[C@H](C)N(C)C(=O)[C@H](Cc3ccc(O)cc3)NC(=O)[C@H](Cc3ccc(-c4ccccc4)cc3)NC(=O)[C@H](Cc3ccc(O)cc3)NC2=O)c1 (stereo partly drawn) [Example 2314] ({CH2CO}-[Thr(3ξ)]Y(Carboxymethyl)D[Phe(3-Me)]Y[Bip]Y[NMeA][dL][Dab][Cha]V[Thr(3ξ)]C[dN][Aun]-OH; thioether N-14) |
| 8.24 | CC(=O)NCCCC[C@@H]1NC(=O)[C@H](Cc2ccc(-c3ccccc3)cc2)NC(=O)[C@H](C(C)C)NC(=O)[C@H](Cc2c[nH]c3ccccc23)NC(=O)[C@H](CC(=O)O)NC(=O)[C@H](Cc2ccc(OCC(=O)O)cc2)NC(=O)[C@H](Cc2ccc(OCC(=O)O)cc2)NC(=O)CSC[C@@H](C(=O)NCCOCCOCC(=O)NCCCCCCCCCCC(=O)O)NC(=O)[C@H](C(C)O)NC(=O)[C@H](C(C)C)NC(=O)[C@H](CC2CCCCC2)NC(=O)[C@H](CCN)NC(=O)[C@@H](CC(C)C)NC(=O)[C@H](C)N(C)C1=O (stereo partly drawn) [Example 2321] ({CH2CO}-Y(Carboxymethyl)Y(Carboxymethyl)DWV[Bip]K(Ac)[NMeA][dL][Dab][Cha]V[Thr(3ξ)]C[AEEA][Aun]-OH; thioether N-14) |
| 7.56 | CC(C)C[C@H]1NC(=O)[C@H](C)N(C)C(=O)[C@H](Cc2ccc(OCC(=O)O)cc2)NC(=O)[C@H](Cc2ccc(-c3ccccc3)cc2)NC(=O)[C@H](Cc2ccc(OCC(=O)O)cc2)NC(=O)[C@H](Cc2c[nH]c3ccccc23)NC(=O)[C@H](CC(=O)O)NC(=O)[C@H](Cc2ccncc2)NC(=O)[C@H](Cc2ccc(OCC(=O)O)cc2)NC(=O)CSC[C@@H](C(=O)N[C@@H](CCN)C(=O)NCCOCCOCC(=O)NCCCCCCCCCCC(=O)O)NC(=O)[C@H]([C@@H](C)O)NC(=O)[C@H](C(C)C)NC(=O)[C@H](CC2CCCCC2)NC(=O)[C@H](CCN)NC1=O [Example 1381] ({CH2CO}-Y(Carboxymethyl)[4Pal]DWY(Carboxymethyl)[Bip]Y(Carboxymethyl)[NMeA][dL][Dab][Cha]VTC[Dab][AEEA][Aun]-OH; thioether N-14) |

Same assay, conditions: PE-labeled PD-L1-Ig 20 nM final, Jurkat-hPD-1 cells; read-out: Jurkat HPD1 PDL1 IC50

| pIC50 | Compound |
| --- | --- |
| 7.72 | CC(=O)NCCCC[C@@H]1NC(=O)[C@H](C(C)C)NC(=O)[C@H](CC2CCCCC2)NC(=O)[C@H](CCN)NC(=O)[C@@H](CC(C)C)NC(=O)[C@H](C)N(C)C(=O)[C@H](CCC(N)=O)NC(=O)[C@H](Cc2ccc(-c3ccccc3)cc2)NC(=O)[C@H](C(C)C)NC(=O)[C@H](Cc2c[nH]c3ccccc23)NC(=O)[C@H](CC(=O)O)NC(=O)[C@H](Cc2ccc(OCC(=O)O)cc2)NC(=O)[C@H](Cc2ccncc2)NC(=O)CSC[C@@H](C(=O)N[C@@H](CCN)C(=O)NCCOCCOCC(=O)NCCCCCCCCCCC(=O)O)NC1=O [Example 2491] ({CH2CO}-[4Pal]Y(Carboxymethyl)DWV[Bip]Q[NMeA][dL][Dab][Cha]VK(Ac)C[Dab][AEEA][Aun]-OH; thioether N-14) |
| 7.84 | Cc1cccc(C[C@@H]2NC(=O)[C@H](CC(=O)O)NC(=O)[C@H](Cc3ccc(OCC(=O)O)cc3)NC(=O)[C@H](CCN)NC(=O)CSC[C@@H](C(=O)N[C@@H](CCN)C(=O)NCCOCCOCC(=O)NCCOCCOCC(=O)NCCCCCCCCCCC(=O)O)NC(=O)[C@H](CCC(=O)O)NC(=O)[C@H](C(C)(C)O)NC(=O)[C@H](CC3CCCCC3)NC(=O)[C@H](CCN)NC(=O)[C@@H](CC(C)C)NC(=O)[C@H](C)N(C)C(=O)[C@H](Cc3ccc(C(=O)O)cc3)NC(=O)[C@H](Cc3ccc(-c4ccccc4)cc3)NC(=O)[C@H](Cc3ccc(C(=O)O)cc3)NC2=O)c1 [Example 2518] ({CH2CO}-[Dab]Y(Carboxymethyl)D[Phe(3-Me)][Phe(4-COOH)][Bip][Phe(4-COOH)][NMeA][dL][Dab][Cha][Val(3-OH)]EC[Dab][AEEA][AEEA][Aun]-OH; thioether N-14) |
